# Reference: ChEMBL document CHEMBL1201862, “PubChem BioAssay data set” (2004)
# Active and inactive are the calls of the source.
# Key:
# [1] = target: Glyceraldehyde-3-phosphate dehydrogenase (Homo sapiens, UniProt P04406)
# Bcl-2-related protein A1 [2] = target: T1, Bcl-2-related protein A1 (Mus musculus, UniProt Q07440); assay: Bfl-1 inhibitors blocking BH3 peptide binding, confirmation, biochemical, TR-FRET, mouse Bfl-1 (AID 621);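 also: TR-FRET binding of GST-Bfl-1 to FITC-labelled Bid peptide via terbium antibody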
# T1 sequence (Q07440 whole entry): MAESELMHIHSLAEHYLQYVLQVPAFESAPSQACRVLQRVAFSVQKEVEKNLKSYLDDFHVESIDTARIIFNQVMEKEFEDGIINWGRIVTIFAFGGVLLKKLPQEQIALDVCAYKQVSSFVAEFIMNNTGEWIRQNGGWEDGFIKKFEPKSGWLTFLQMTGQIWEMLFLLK
# Bcl-2-related protein A1 [3] = target: T1, Bcl-2-related protein A1; assay: Bfl-1 binding inhibitors, SAR follow-up, biochemical, fluorescence polarization (AID 1070)
# [4] = enhancers of respiration in Yfh1-depleted yeast, dose response, Friedreich's ataxia, plus single-dose screen (AID 1465); format: functional;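 also: yeast depleted of Yfh1p frataxin homolog grown on glycerol needing respiration; WST-1 tetrazolium dye reduction as measure of cellular dehydrogenase metabolic activity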
# Estrogen receptor = target: T2, Estrogen receptor (Homo sapiens, UniProt P03372);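 also: potency for inhibiting coactivator peptide recruitment to the receptor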
# T2 sequence (P03372 whole entry): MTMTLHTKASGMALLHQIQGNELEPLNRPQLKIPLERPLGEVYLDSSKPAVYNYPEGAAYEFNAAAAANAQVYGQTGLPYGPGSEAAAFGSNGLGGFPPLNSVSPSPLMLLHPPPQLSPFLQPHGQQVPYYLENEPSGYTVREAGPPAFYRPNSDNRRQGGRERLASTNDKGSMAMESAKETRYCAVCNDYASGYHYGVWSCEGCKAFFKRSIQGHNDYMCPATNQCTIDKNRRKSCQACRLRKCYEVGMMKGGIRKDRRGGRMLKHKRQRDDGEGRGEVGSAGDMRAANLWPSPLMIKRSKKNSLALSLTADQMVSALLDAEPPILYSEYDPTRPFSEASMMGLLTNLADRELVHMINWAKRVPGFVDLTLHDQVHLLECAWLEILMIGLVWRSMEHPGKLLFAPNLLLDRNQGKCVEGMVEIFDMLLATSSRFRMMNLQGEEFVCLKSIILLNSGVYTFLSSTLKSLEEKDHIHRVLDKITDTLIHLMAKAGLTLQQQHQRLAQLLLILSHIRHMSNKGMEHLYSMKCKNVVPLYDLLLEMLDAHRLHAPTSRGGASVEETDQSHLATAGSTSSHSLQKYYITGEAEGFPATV
# SUMO-activating enzyme = SUMO-activating enzyme (Homo sapiens, UniProt Q9UBT2); assay: inhibitors of in vitro SUMOylation cascade, primary screen, biochemical, HTRF, uHTS (AID 2006); format: protein-complex assay
# Sequence of SUMO-activating enzyme (Q9UBE0 whole entry): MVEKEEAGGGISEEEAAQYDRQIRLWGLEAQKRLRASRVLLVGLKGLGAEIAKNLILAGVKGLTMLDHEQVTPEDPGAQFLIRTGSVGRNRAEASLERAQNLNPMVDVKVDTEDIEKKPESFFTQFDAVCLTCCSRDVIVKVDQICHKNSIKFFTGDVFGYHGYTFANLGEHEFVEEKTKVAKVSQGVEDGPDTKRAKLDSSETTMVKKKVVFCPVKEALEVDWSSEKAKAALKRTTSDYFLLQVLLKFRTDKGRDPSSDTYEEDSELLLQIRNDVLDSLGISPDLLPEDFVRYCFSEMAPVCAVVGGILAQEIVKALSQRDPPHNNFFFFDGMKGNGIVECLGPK
# Sequence of SUMO-activating enzyme (Q9UBT2 whole entry): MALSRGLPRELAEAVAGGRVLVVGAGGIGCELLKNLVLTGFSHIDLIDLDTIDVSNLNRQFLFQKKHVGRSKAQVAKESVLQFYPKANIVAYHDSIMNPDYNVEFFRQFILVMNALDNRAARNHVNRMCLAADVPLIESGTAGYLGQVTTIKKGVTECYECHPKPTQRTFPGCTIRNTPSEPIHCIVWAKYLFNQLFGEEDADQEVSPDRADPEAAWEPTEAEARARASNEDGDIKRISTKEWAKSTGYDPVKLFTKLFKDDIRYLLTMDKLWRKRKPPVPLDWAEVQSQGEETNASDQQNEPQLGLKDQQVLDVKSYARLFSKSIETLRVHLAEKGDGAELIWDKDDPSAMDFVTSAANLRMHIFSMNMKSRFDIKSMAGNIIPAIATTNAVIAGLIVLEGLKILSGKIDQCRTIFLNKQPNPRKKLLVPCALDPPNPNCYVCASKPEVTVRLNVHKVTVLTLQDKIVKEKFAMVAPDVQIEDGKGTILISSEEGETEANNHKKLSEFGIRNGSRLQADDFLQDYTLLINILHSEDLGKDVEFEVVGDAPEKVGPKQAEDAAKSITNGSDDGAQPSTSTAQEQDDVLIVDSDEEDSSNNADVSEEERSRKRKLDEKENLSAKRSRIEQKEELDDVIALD
# [5] = target: Protein-tyrosine kinase 2-beta (Homo sapiens, UniProt Q14289);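 also: potency of inhibitors of PYK2 kinase phosphorylation of poly-GT substrate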
# Sequence of Protein-tyrosine kinase 2-beta (Q14289 whole entry): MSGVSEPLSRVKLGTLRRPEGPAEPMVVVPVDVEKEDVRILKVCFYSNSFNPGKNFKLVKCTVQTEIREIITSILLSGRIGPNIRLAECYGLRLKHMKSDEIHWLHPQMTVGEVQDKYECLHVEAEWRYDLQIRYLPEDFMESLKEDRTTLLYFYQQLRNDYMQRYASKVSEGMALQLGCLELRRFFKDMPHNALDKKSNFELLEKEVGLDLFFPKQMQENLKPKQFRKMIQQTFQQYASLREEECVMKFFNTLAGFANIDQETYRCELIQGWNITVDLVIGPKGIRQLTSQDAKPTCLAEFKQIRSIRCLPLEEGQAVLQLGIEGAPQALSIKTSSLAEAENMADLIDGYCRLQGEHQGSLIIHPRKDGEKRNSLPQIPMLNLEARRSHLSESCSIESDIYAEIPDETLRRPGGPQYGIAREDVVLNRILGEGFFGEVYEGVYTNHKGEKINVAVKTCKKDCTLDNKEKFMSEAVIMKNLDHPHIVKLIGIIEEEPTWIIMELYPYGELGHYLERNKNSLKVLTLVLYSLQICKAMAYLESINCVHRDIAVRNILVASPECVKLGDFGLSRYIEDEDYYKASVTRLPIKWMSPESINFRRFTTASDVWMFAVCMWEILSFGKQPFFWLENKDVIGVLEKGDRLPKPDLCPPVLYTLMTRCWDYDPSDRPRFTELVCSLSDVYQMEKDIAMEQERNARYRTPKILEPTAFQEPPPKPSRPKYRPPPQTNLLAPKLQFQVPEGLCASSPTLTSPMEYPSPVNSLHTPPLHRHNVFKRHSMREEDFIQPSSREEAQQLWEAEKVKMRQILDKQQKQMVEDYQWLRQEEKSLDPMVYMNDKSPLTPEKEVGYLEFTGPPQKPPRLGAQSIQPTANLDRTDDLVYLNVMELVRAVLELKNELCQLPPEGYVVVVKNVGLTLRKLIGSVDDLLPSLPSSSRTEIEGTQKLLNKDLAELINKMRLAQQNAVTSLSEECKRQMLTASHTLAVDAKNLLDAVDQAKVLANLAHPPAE
# Cytochrome P450 2D6 = Cytochrome P450 2D6 (Homo sapiens, UniProt P10635);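 also: CYP2D6 member of a cytochrome P450 panel assay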
# [6] = NIH-3T3 fibroblast cytotoxicity, dose response, cytotoxicity control, cell-based, fluorescence, Alamar Blue, secondary assay (AID 2327); format: functional;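 also: NIH-3T3 mouse fibroblasts cultured with fluconazole at 8 µg/mL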
# [7] = C. albicans growth with fluconazole, confirmation, fluorescence, retest (AID 2467); format: functional, cell-based
# [8] = inhibitors of Bluetongue virus cytopathic effect, confirmation, arbovirus, BSR cells (AID 1250); format: functional;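 also: protection from viral cytopathic effect measured as cell viability by ATP luminescence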
# Genome polyprotein = Genome polyprotein (dengue virus type 2, UniProt P29990); assay: Dengue-2 NS5 methyltransferase inhibitors, primary screen, biochemical, confirmation dose response (AID 588689); format: functional
# Sequence of Genome polyprotein (P29990 2492-3391 limits assumed): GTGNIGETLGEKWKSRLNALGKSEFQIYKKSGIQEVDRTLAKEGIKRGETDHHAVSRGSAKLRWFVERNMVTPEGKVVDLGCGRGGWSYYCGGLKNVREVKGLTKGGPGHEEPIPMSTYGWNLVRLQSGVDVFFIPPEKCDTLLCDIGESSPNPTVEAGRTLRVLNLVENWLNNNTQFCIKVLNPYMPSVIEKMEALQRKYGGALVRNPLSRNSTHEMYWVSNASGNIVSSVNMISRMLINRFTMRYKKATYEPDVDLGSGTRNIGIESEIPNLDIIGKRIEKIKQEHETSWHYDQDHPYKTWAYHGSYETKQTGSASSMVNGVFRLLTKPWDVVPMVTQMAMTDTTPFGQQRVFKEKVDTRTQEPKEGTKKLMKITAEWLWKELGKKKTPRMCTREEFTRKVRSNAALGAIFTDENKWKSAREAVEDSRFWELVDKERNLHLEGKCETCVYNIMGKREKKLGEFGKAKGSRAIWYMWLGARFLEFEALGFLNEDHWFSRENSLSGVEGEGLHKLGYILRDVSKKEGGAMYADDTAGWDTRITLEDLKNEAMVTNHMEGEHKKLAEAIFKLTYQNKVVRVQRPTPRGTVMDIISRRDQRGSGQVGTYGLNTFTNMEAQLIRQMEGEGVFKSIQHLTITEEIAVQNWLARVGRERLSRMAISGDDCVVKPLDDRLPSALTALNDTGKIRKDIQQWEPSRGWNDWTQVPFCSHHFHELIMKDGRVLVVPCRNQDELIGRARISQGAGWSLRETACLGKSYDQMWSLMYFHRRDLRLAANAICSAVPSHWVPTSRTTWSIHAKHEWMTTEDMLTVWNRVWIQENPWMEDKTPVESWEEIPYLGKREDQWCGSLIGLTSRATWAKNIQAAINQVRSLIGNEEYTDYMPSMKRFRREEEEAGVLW
# Bcl-2-related protein A1 [9] = target: T1, Bcl-2-related protein A1; assay: Bfl-1 inhibitors, primary screen, biochemical, fluorescence polarization, FITC-Bid, mouse (AID 432)
# [10] = target: Sphingosine 1-phosphate receptor 2 (Homo sapiens, UniProt O95136); assay: Dose Response Cell Based Assay for Antagonists of the S1P2 Receptor. [Related pubchem assays: 856, 736 ]; format: functional
# [11] = target: Neurotensin receptor type 1 (Homo sapiens, UniProt P30989); format: functional;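 also: Image-based confirmatory dose-response assay measuring agonist activity at NTR1; NTR1-expressing U2OS osteosarcoma cells imaged for beta-arrestin GFP spot formation; agonist potency where compounds increase beta-arrestin recruitment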
# Sequence of Neurotensin receptor type 1 (P30989 whole entry): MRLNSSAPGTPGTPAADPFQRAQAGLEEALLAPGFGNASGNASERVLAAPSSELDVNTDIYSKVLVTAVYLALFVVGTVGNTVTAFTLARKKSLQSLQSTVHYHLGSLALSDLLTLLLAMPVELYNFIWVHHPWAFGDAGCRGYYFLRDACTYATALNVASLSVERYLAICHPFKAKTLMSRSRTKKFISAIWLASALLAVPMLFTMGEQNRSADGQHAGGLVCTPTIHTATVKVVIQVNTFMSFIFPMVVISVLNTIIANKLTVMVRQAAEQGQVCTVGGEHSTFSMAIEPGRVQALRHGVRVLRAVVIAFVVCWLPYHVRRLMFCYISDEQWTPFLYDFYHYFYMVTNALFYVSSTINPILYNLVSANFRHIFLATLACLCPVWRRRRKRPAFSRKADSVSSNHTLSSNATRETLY
# [12] = Shn3 3'UTR reporter inhibitors, dose response, cell-based, Clone20 osteoblasts, firefly luciferase, cherry-picked (AID 624132); format: functional;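 also: firefly luciferase luminescence from reporter carrying the Shn3 3'UTR in osteoblasts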
# [13] = HepG2 cell cytotoxicity, dose response, cytotoxicity control for Shn3 inhibitor project, CellTiter-Glo, cherry-picked (AID 624134); format: functional, cell-based
# [14] = control 3'UTR Renilla luciferase suppression, dose response, counter-screen for Shn3 inhibitor project, cell-based, Clone20-Shn3RL, cherry-picked (AID 624133); format: functional
# Protein Wnt-3a = Protein Wnt-3a (Mus musculus, UniProt P27467); assay: Wnt3a-driven reporter signaling inhibition, dose response, selectivity assay for Gli-SUFU antagonist project, Wnt-LIGHT cells, luminescence (AID 651570); format: functional; conditions: read-out: IC50_Mean;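 also: Wnt-LIGHT reporter cells stimulated with conditioned medium from Wnt3a-producing cells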
# Sequence of Protein Wnt-3a (P27467 whole entry, the tested form may be a part): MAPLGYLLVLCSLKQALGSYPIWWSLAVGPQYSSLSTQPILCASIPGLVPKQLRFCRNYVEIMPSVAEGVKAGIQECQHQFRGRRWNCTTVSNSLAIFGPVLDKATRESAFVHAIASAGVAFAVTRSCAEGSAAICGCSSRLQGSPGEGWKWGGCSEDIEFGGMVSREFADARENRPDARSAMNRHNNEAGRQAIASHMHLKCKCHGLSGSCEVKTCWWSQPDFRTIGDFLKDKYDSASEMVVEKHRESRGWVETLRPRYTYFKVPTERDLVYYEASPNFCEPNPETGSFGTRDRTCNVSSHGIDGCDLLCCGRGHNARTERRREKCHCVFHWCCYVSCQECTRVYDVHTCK
# [15] = inhibitors of HIV Env-driven cell fusion, dose response, cherry-pick (AID 652057); format: functional, cell-based
# [16] = CEM21 lymphoblast cell cytotoxicity, dose response, cytotoxicity control for viral fusion inhibitor project, CellTiter-Glo luminescence, cherry-picked (AID 652042); format: functional, cell-based;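 also: potency for signal decrease meaning cytotoxicity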
# [17] = inhibitors of clade B AD8 Env fusion, dose response, cell-based, cherry-pick (AID 652062); format: functional;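 also: luciferase signal from cell-cell fusion driven by HIV-1 clade B AD8 Env; potency is for inhibitors of fusion seen as a drop in luminescence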
# [18] = reduction of endogenous Shn3 mRNA, dose response, qPCR, Clone20 cells, cherry-pick (AID 743415); format: functional, cell-based
# [19] = target: COUP transcription factor 2 (Homo sapiens, UniProt P24468); assay: Luminescence-based cell-based high throughput dose response assay to identify inhibitors of COUP-TFII (NR2F2).; format: functional;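 also: HEK293 cells transiently cotransfected with COUP-TFII expression vector and reporter; luciferase reporter luminescence driven by COUP-TFII from the pX2-168 reporter plasmid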
# Sequence of COUP transcription factor 2 (P24468 whole entry): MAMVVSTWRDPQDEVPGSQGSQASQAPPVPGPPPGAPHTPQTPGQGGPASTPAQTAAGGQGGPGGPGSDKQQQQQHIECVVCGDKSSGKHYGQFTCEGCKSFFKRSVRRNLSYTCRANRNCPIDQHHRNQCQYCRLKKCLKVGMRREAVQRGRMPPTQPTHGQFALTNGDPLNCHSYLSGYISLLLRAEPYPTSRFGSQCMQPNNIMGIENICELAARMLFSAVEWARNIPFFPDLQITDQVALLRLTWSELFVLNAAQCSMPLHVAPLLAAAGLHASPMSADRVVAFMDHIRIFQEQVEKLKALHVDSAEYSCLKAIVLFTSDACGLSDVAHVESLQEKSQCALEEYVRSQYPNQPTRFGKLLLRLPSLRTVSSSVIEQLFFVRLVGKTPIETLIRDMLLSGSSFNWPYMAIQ
# [20] = reduction of Shn3 3'UTR firefly luciferase signal, dose response, Schnurri-3 inhibitor project, cell-based, Clone20 osteoblasts, cherry-pick, set 2 (AID 720490); format: functional;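 also: actives lower the luminescence signal as inhibitors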
# [21] = target: 5-hydroxytryptamine receptor 1A (Homo sapiens, UniProt P08908); format: functional
# Sequence of 5-hydroxytryptamine receptor 1A (P08908 whole entry): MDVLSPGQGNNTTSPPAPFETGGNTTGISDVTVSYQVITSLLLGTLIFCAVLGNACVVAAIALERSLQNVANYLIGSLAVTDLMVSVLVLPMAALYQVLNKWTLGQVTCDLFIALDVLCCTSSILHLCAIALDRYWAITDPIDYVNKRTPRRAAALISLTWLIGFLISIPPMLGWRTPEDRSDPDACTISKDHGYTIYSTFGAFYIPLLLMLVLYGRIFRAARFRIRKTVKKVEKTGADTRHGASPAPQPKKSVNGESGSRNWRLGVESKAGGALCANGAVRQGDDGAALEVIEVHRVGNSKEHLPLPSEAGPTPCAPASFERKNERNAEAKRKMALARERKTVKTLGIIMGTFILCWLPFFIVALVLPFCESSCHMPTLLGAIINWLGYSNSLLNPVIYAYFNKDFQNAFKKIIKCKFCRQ
# Sequence of Glyceraldehyde-3-phosphate dehydrogenase (P04406 whole entry): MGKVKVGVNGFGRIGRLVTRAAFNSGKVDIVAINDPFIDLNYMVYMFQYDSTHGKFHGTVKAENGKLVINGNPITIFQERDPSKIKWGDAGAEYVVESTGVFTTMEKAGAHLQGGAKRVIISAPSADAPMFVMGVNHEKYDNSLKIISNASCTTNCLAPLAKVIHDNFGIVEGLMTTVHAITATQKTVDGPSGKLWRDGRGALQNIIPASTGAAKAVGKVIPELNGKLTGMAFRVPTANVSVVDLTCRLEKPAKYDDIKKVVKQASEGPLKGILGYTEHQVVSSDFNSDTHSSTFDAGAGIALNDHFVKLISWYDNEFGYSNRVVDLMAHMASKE
smiles,measurement,setting,value
CN1CCN(C2=C(Cl)C(=O)N(c3cccc(Cl)c3)C2=O)CC1,IC50,[1],> 100 µM (not active)
same,IC50,Bcl-2-related protein A1 [2],1.17 µM (active)
same,IC50,Bcl-2-related protein A1 [3],2.15 µM (active)
CC(C)NC(=O)/C(C#N)=C/c1ccc(N(C)C)o1,EC50,[4],> 100 µM (active)
O=C(Nc1ccc(-n2nncc2-c2ccco2)cc1)c1cc2ccccc2oc1=O,IC50,Estrogen receptor,40.6 µM (not active)
same,IC50,SUMO-activating enzyme,14.7 µM (active)
same,IC50,[5],1.9 µM (active)
same,AC50,Cytochrome P450 2D6,2.51 µM (inconclusive)
CCCCCCn1c(=O)c(-c2ccccc2)c(O)c2ccccc21,EC50,[6],> 150 µM (inactive)
same,EC50,[7],4.42 µM (active)
same,IC50,[8],25 µM (active)
same,IC50,Genome polyprotein,69.4 µM (active)
O=C(NC12CC3CC(CC(C3)C1)C2)c1ccccc1O,IC50,Bcl-2-related protein A1 [9],> 100 µM (not active)
same,IC50,Bcl-2-related protein A1 [2],> 100 µM (not active)
Fc1ccc(-n2nnnc2-c2cnc(-c3cccs3)nc2C(F)(F)F)cc1,IC50,[10],5.2 µM (active)
same,EC50,[11],9.77 µM (active)
same,AC50,[12],4.44 µM (active)
same,AC50,[13],55 µM (active)
same,AC50,[14],13.3 µM (active)
same,IC50,Protein Wnt-3a,5.83 µM (active)
same,AC50,[15],9.88 µM (active)
same,AC50,[16],18.8 µM (active)
same,AC50,[17],40.4 µM (active)
same,AC50,[18],24.4 µM (active)
same,IC50,[19],12.8 µM (inactive)
same,AC50,[20],2.6 µM (active)
O=C(NCc1ccccc1)NC1(C(=O)N2CCCC2)CCCCC1,EC50,[21],> 50 µM (not active)
